Measured values from patent publication US9663478B2, “Benzotriazine oxides as drugs targeting Mycobacterium tuberculosis” (priority 2011, dated 2017).
Values after ≈ are worked out from the molar mass of the structure shown. Read-outs that look alike come from different tables or passages of the source.

Assays:
[1] = tested on: Mtb H37Rv; assay: TB MIC - ITR (UIC), Institute for Tuberculosis Research; format: cell-based, Mycobacterium tuberculosis; details: for MIC: Mycobacterium tuberculosis, H37RV, Tables 1-4, read-out: TB MIC - ITR
[2] = tested on: Mtb H37Rv; assay: TB MIC - SRI, resazurin-based microplate assay; format: cell-based, Mycobacterium tuberculosis; details: Mycobacterium tuberculosis, H37RV
[3] = tested on: NRP Mtb H37Rv cells; assay: Low-oxygen recovery assay (LORA) MIC; format: cell-based, Mycobacterium tuberculosis; details: for MIC: Mycobacterium tuberculosis, H37RV, NRP Mtb, Tables 1-4 and text, read-out: LORA MIC - ITR
[4] = tested on: Vero cells
[5] = Tables P1-P3, read-out: TB MIC - SRI
[6] = Tables 1-4 and text, read-out: TB MIC - SRI
[7] = read-out: TB MIC - SRI, Tables P1-P3
[8] = Table P4, read-out: Activity against H37Rv

Structure (SMILES): [O-][n+]1nc(N[C@@H]2C[C@H]3CC[C@@H]2C3)[n+]([O-])c2ccc(Cl)cc21 (racemic) [SRI-012305]
- TB MIC - UIC ([1]; Tables P1, P2): < 0.125 µg/mL
- MIC [2, 5]: 0.156 µg/mL (≈ 0.509 µM)
- LORA MIC ([3]; Tables P1, P2, non-replicating M. tuberculosis): 0.2 µg/mL

Structure (SMILES): C[C@@H]1[C@H]2C[C@@H](C[C@H]1Nc1n[n+]([O-])c3cc(F)ccc3[n+]1[O-])C2(C)C (racemic) [SRI-012402]
- MIC [2, 5]: 0.312 µg/mL (≈ 0.939 µM)

Structure (SMILES): [O-][n+]1nc(N[C@@H]2C[C@H]3CC[C@@H]2C3)[n+]([O-])c2cc3c(cc21)CCC3 (racemic) [SRI-012404]
- MIC [2, 5]: 1.25 µg/mL (≈ 4 µM)
- VERO Tox-SRI ([4]; African green monkey, 72 h): 50

Structure (SMILES): Cc1cccc2c1[n+]([O-])c(N[C@@H]1C[C@H]3CC[C@@H]1C3)n[n+]2[O-] (racemic) [SRI-012461]
- MIC [2, 5]: 0.156 µg/mL (≈ 0.545 µM)
- VERO Tox-SRI ([4]; African green monkey, 72 h): 2.3

Structure (SMILES): CSc1c(C)[n+]([O-])c2ccccc2[n+]1[O-] [Cmpd 3]
- Vero Tox CC50 [4]: >16 µg/mL

Structure (SMILES): [O-][n+]1nc(NC2CC2)[n+]([O-])c2ccccc21 [Compound 8b, 3-(cyclopropylamino)benzo[e][1,2,4]triazine 1,4-dioxide]
- MIC [2, 6]: 2.5 µg/mL (≈ 11.5 µM)
- Vero Tox CC50 ([4]; African green monkey, 72 h): 21 µg/mL

Structure (SMILES): [O-][n+]1nc(NC2CCC2)[n+]([O-])c2ccccc21 [Compound 8d, 3-(cyclobutylamino)benzo[e][1,2,4]triazine 1,4-dioxide]
- MIC [1]: 0.94 µg/mL (≈ 4.05 µM)
- MIC [2, 6]: 1.2 µg/mL (≈ 5.17 µM)
- MIC [3]: 0.84 µg/mL (≈ 3.62 µM)

Structure (SMILES): [O-][n+]1nc(NC2CCCCC2)[n+]([O-])c2ccccc21 [Compound 8f, 3-(cyclohexylamino)benzo[e][1,2,4]triazine 1,4-dioxide]
- MIC [1]: 3.8 µg/mL (≈ 14.6 µM)
- MIC [2, 6]: 2.5 µg/mL (≈ 9.6 µM)
- MIC [3]: 0.75 µg/mL (≈ 2.88 µM)

Structure (SMILES): [O-][n+]1nc(NC2CCCCCC2)[n+]([O-])c2ccccc21 [Compound 8g, 3-(cycloheptylamino)benzo[e][1,2,4]triazine 1,4-dioxide]
- MIC [1]: 1.6 µg/mL (≈ 5.83 µM)
- MIC [2, 6]: 2.5 µg/mL (≈ 9.11 µM)
- MIC [3]: 0.5 µg/mL (≈ 1.82 µM)

Structure (SMILES): CC(C)(C)C1CCC(Nc2n[n+]([O-])c3ccccc3[n+]2[O-])CC1 (stereo not shown) [Compound 8j, 3-((4-(tert-butyl)cyclohexyl)amino)benzo[e][1,2,4]triazine 1,4-dioxide]
- MIC [1]: 0.22 µg/mL (≈ 0.695 µM)
- MIC [2, 6]: 0.62 µg/mL (≈ 1.96 µM)
- MIC [3]: < 0.12 µg/mL

Structure (SMILES): CC(C)CCC(C)Nc1n[n+]([O-])c2ccccc2[n+]1[O-] (stereo not shown) [Compound 8l, 3-((5-methylhexan-2-yl)amino)benzo[e][1,2,4]triazine 1,4-dioxide]
- MIC [1]: 0.52 µg/mL (≈ 1.88 µM)
- MIC [2, 6]: 1.2 µg/mL (≈ 4.34 µM)
- MIC [3]: 0.38 µg/mL (≈ 1.38 µM)

Structure (SMILES): CCNc1n[n+]([O-])c2cc(F)ccc2[n+]1[O-] [Compound 15aa, 3-(ethylamino)-7-fluorobenzo[e][1,2,4]triazine 1,4-dioxide]
- MIC [1]: 0.35 µg/mL (≈ 1.56 µM)
- MIC [2, 6]: 0.62 µg/mL (≈ 2.77 µM)
- MIC [3]: 0.75 µg/mL (≈ 3.35 µM)

Structure (SMILES): [O-][n+]1nc(NC2CCCC2)[n+]([O-])c2ccc(F)cc21 [Compound 15ae, 3-(cyclopentylamino)-7-fluorobenzo[e][1,2,4]triazine 1,4-dioxide]
- MIC [1]: 0.33 µg/mL (≈ 1.25 µM)
- MIC [2, 6]: 0.31 µg/mL (≈ 1.17 µM)
- MIC [3]: 0.34 µg/mL (≈ 1.29 µM)

Structure (SMILES): [O-][n+]1nc(NC2CCCCC2)[n+]([O-])c2ccc(F)cc21 [Compound 15af, 3-(cyclohexylamino)-7-fluorobenzo[e][1,2,4]triazine 1,4-dioxide]
- MIC [1]: 0.68 µg/mL (≈ 2.44 µM)
- MIC [2, 6]: 0.62 µg/mL (≈ 2.23 µM)
- MIC [3]: 0.47 µg/mL (≈ 1.69 µM)

Structure (SMILES): [O-][n+]1nc(NC2CCC2)[n+]([O-])c2ccc(Cl)cc21 [Compound 15bd, 7-chloro-3-(cyclobutylamino)benzo[e][1,2,4]triazine 1,4-dioxide]
- MIC [2, 6]: 0.15 µg/mL (≈ 0.562 µM)
- MIC [3]: < 0.12 µg/mL

Structure (SMILES): CCNc1n[n+]([O-])c2cc(OC)ccc2[n+]1[O-] [Compound 15da, 3-(ethylamino)-7-methoxybenzo[e][1,2,4]triazine 1,4-dioxide]
- MIC [1]: 15 µg/mL (≈ 63.5 µM)
- MIC [2, 6]: 2.5 µg/mL (≈ 10.6 µM)
- MIC [3]: 16 µg/mL (≈ 67.7 µM)

Structure (SMILES): Cc1cccc2c1[n+]([O-])c(NC1CCCC1)n[n+]2[O-] [Compound 15ee, 3-(cyclopentylamino)-5-methylbenzo[e][1,2,4]triazine 1,4-dioxide]
- MIC [1]: 0.43 µg/mL (≈ 1.65 µM)
- MIC [2, 6]: 0.31 µg/mL (≈ 1.19 µM)
- MIC [3]: 0.27 µg/mL (≈ 1.04 µM)

Structure (SMILES): [O-][n+]1nc(N2CCCC2)[n+]([O-])c2ccccc21 [Compound 17q, 3-(pyrrolidin-1-yl)benzo[e][1,2,4]triazine 1,4-dioxide]
- MIC ([2]; Table 5, read-out: MIC, H37Rv): 0.31 µg/mL (≈ 1.33 µM)
- Vero Tox CC50 ([4]; African green monkey, 72 h): 17 µg/mL

Structure (SMILES): CC(C)(C)Nc1n[n+]([O-])c2ccccc2[n+]1[O-] [SRI-003356]
- MIC [2, 7]: 1.25 µg/mL (≈ 5.34 µM)

Structure (SMILES): CCN(CC)c1n[n+]([O-])c2ccccc2[n+]1[O-] [SRI-009728]
- TB MIC - UIC ([1]; Table P3): 12.4 µg/mL
- MIC [2, 5]: 0.312 µg/mL (≈ 1.33 µM)

Structure (SMILES): Nc1n[n+]([O-])c2cc(Br)ccc2[n+]1[O-] [SRI-012396]
- MIC [2, 5]: 1.25 µg/mL (≈ 4.86 µM)

Structure (SMILES): Cc1cccc2c1[n+]([O-])c(N)n[n+]2[O-] [SRI-012397]
- MIC [2, 5]: 0.625 µg/mL (≈ 3.25 µM)

Structure (SMILES): Nc1n[n+]([O-])c2cc3c(cc2[n+]1[O-])CCC3 [SRI-012398]
- MIC [2, 5]: 2.5 µg/mL (≈ 11.5 µM)

Structure (SMILES): CCNc1n[n+]([O-])c2cc(C)c(C)cc2[n+]1[O-] [SRI-012399]
- MIC [2, 5]: 2.5 µg/mL (≈ 10.7 µM)

Structure (SMILES): CC(C)(C)C1CCC(Nc2n[n+]([O-])c3cc(F)ccc3[n+]2[O-])CC1 (stereo not shown) [SRI-012401]
- MIC [2, 5]: 0.312 µg/mL (≈ 0.933 µM)

Structure (SMILES): [O-][n+]1nc(NC2CCC2)[n+]([O-])c2cc3c(cc21)CCC3 [SRI-012403]
- MIC [2, 5]: 0.625 µg/mL (≈ 2.3 µM)
- VERO Tox-SRI ([4]; African green monkey, 72 h): 33.6

Structure (SMILES): Cc1cc2c(cc1C)[n+]([O-])c(NC1CCC1)n[n+]2[O-] [SRI-012459]
- MIC [2, 5]: 0.625 µg/mL (≈ 2.4 µM)
- VERO Tox-SRI ([4]; African green monkey, 72 h): 21.8

Structure (SMILES): Cc1cccc2c1[n+]([O-])c(NC1CCC1)n[n+]2[O-] [SRI-012460]
- MIC [2, 5]: 0.312 µg/mL (≈ 1.27 µM)
- VERO Tox-SRI ([4]; African green monkey, 72 h): 21.8

Structure (SMILES): COc1ccc2c(c1)[n+]([O-])nc(N[C@@H]1C[C@H]3CC[C@@H]1C3)[n+]2[O-] [SRI-012462]
- MIC [2, 5]: 0.625 µg/mL (≈ 2.07 µM)

Structure (SMILES): COc1ccc2c(c1)[n+]([O-])nc(NC1CCC1)[n+]2[O-] [SRI-012463]
- MIC [2, 5]: 0.625 µg/mL (≈ 2.38 µM)
- VERO Tox-SRI ([4]; African green monkey, 72 h): 9.85

Structure (SMILES): CCNc1n[n+]([O-])c2cc(Br)ccc2[n+]1[O-] [SRI-012464]
- MIC [2, 5]: 0.625 µg/mL (≈ 2.19 µM)

Structure (SMILES): [O-][n+]1nc(NC2CCC2)[n+]([O-])c2ccc(Br)cc21 [SRI-012465]
- MIC [2, 5]: 0.156 µg/mL (≈ 0.501 µM)

Structure (SMILES): [O-][n+]1nc(NC2CCCC2)[n+]([O-])c2ccc(Br)cc21 [SRI-012466]
- MIC [2, 5]: 0.156 µg/mL (≈ 0.48 µM)

Structure (SMILES): CCNc1n[n+]([O-])c2cc(C)c(OC)cc2[n+]1[O-] [SRI-012468]
- VERO Tox-SRI ([4]; African green monkey, 72 h): 100

Structure (SMILES): COc1cc2c(cc1C)[n+]([O-])nc(NC1CCC1)[n+]2[O-] [SRI-012469]
- VERO Tox-SRI ([4]; African green monkey, 72 h): 50

Structure (SMILES): COc1cc2c(cc1C)[n+]([O-])nc(N[C@@H]1C[C@H]3CC[C@@H]1C3)[n+]2[O-] [SRI-012470]
- VERO Tox-SRI ([4]; African green monkey, 72 h): 50

Structure (SMILES): [O-][n+]1nc(N2CCCC2)[n+]([O-])c2ccccc21 [SRI-012495]
- TB MIC - UIC ([1]; Table P3): 17.4 µg/mL
- MIC [2, 5]: 0.312 µg/mL (≈ 1.34 µM)

Structure (SMILES): [O-][n+]1nc(N2CCCC2)[n+]([O-])c2cc3c(cc21)CCC3 [SRI-012530]
- MIC ([2]; read-out: Activity against H37Rv, Table P4): 0.62 µg/mL (≈ 2.28 µM)
- MIC [2, 7]: 0.625 µg/mL (≈ 2.3 µM)

Structure (SMILES): [O-][n+]1nc(N2CCCCC2)[n+]([O-])c2cc3c(cc21)CCC3 [SRI-012562]
- MIC [2, 5]: 0.625 µg/mL (≈ 2.18 µM)

Structure (SMILES): CN(C)c1n[n+]([O-])c2cc3c(cc2[n+]1[O-])CCC3 [SRI-012563]
- MIC [2, 5]: 0.625 µg/mL (≈ 2.54 µM)

Structure (SMILES): CN(Cc1ccccc1)c1n[n+]([O-])c2cc3c(cc2[n+]1[O-])CCC3 [SRI-012564]
- MIC [2, 5]: 0.312 µg/mL (≈ 0.968 µM)

Structure (SMILES): CN(CCc1ccccc1)c1n[n+]([O-])c2cc3c(cc2[n+]1[O-])CCC3 [SRI-012565]
- MIC [2, 5]: 0.312 µg/mL (≈ 0.927 µM)

Structure (SMILES): O=S1(=O)CCN(c2n[n+]([O-])c3cc4c(cc3[n+]2[O-])CCC4)CC1 [SRI-012566]
- MIC [2, 8]: 5 µg/mL (≈ 14.9 µM)
- MIC [2, 5]: 5 µg/mL (≈ 14.9 µM)

Structure (SMILES): CC1CCCCN1c1n[n+]([O-])c2cc3c(cc2[n+]1[O-])CCC3 (stereo not shown) [SRI-012567]
- MIC [2, 8]: 1.25 µg/mL (≈ 4.16 µM)
- MIC [2, 5]: 1.25 µg/mL (≈ 4.16 µM)

Structure (SMILES): CS(=O)(=O)N1CCN(c2n[n+]([O-])c3cc4c(cc3[n+]2[O-])CCC4)CC1 [SRI-012568]
- MIC [2, 8]: 5 µg/mL (≈ 13.7 µM)
- MIC [2, 5]: 5 µg/mL (≈ 13.7 µM)
